According to patent publication EP3266784A1, “PROTEIN ARGININE N-METHYLTRANSFERASES INHIBITORS AND USES THEREOF” (PIERRE FABRE MEDICAMENT, priority 2016, dated 2018):

Experiments:
Assay type in all cases: biochemical
human PRMT1 enzyme = human PRMT1 enzyme (Homo sapiens, UniProt Q99873); assay: PRMT1 inhibition assay (radioactive [3H]SAM methyl transfer, filter binding); conditions: compound at 100µM, 700 nM [3H]SAM, 50 nM Histone H4 full length, 20 min at 22°C; for inhibition at 100 µM: read-out: PRMT1 100µM, percent inhibition of the control enzyme activity
Chain of human PRMT1 enzyme (Q99873 whole entry): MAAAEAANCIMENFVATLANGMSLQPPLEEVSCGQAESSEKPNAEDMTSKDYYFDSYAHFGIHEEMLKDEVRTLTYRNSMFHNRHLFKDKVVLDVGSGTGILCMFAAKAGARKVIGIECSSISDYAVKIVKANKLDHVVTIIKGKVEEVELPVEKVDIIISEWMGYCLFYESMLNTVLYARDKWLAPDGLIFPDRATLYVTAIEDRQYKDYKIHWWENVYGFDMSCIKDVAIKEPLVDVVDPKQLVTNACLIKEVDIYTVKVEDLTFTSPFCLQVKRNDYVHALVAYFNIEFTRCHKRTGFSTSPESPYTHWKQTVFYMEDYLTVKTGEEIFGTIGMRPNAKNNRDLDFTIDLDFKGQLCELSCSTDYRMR
Procedure: (§1) The inhibitory effect of compounds on the methyltransferase activity of human PRMT was evaluated via the measurement of its capacity to transfer methyl groups in a radioactivity assay.
The test compound, reference compound, or water (control) were incubated for 20 min at 22°C with 20 ng human PRMT1 enzyme, 700 nM [^3H]SAM and 50 nM Histone H4 full length in a buffer containing 45 mM Tris-HCl (pH 8), 4.5 mM MgCl2, 45 mM NaCl and 3.6 mM DTT.
(§2) For control basal measurements, the enzyme is omitted from the reaction mixture. Following incubation, the reaction is stopped by adding 33 mM citric acid and the samples are filtered rapidly under vacuum through glass fiber filters (GF/B, Packard) presoaked with 33 mM citric acid and rinsed several times with ice-cold 33 mM citric acid using a 96-sample cell harvester (Unifilter, Packard). The filters are dried then counted for radioactivity in a scintillation counter (Topcount, Packard) using a scintillation cocktail (Microscint 0, Packard).
The results are expressed as a percent inhibition of the control enzyme activity. The standard reference compound is SAH, which is tested in each experiment at several concentrations to obtain a competition curve from which its IC50 is calculated (Cheng et al., 2004, J. Biol. Chem. 279:23892).

human PRMT4 enzyme = biological target: T1, human PRMT4 enzyme (Homo sapiens, UniProt Q86X55); assay: PRMT4 inhibition assay (radioactive [3H]SAM methyl transfer, filter binding); conditions: 60 nM [3H]SAM, 25 nM Histone H3 full length, 1 h at 22°C; for IC50: read-out: PRMT4/CARM1 IC50; for inhibition at 100 µM: read-out: PRMT4/CARM1 100µM, percent inhibition of the control enzyme activity; for inhibition at 10 µM: read-out: PRMT4/CARM1 10µM, percent inhibition of the control enzyme activity
T1 sequence (Q86X55 1-608): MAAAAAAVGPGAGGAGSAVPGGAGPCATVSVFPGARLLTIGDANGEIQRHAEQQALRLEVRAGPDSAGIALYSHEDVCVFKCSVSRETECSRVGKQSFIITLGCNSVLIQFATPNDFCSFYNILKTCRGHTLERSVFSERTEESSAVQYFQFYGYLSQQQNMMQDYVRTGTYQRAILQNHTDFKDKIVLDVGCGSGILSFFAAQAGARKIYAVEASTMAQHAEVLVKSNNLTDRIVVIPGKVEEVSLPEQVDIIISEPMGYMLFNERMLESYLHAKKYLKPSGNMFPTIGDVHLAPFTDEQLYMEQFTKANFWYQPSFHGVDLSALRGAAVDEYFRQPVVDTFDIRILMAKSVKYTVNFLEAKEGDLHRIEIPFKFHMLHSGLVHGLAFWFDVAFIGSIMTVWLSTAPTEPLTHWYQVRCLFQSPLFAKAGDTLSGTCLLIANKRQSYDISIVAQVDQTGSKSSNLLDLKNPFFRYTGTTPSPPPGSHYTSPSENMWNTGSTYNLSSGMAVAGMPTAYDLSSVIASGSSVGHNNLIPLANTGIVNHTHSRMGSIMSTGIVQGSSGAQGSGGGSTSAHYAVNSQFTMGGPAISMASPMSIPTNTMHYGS
Procedure: as §1
The test compound, reference compound, or water (control) were incubated for 1 h at 22°C with 2.5 ng human PRMT4 enzyme, 60 nM [^3H]SAM and 25 nM Histone H3 full length in a buffer containing 45 mM Tris-HCl (pH 8), 45 mM NaCl, 4.5 mM MgCl2 and 3.6 mM DTT.
as §2
(§3) The results are expressed as a percent inhibition of the control enzyme activity. The standard reference compound is SAH, which is tested in each experiment at several concentrations to obtain a competition curve from which its IC50 is calculated (Selvi et al., 2010, J. Biol. Chem., 285: 7143).

human PRMT6 enzyme = human PRMT6 enzyme (Homo sapiens, UniProt Q96LA8); assay: PRMT6 inhibition assay (radioactive [3H]SAM methyl transfer, filter binding); conditions: 120 nM [3H]SAM, 25 nM Histone H3 full length, 120 min at 22°C; for inhibition at 10 µM: compound at 10µM, read-out: PRMT6 10µM, percent inhibition of the control enzyme activity; for inhibition at 100 µM: read-out: PRMT6 100µM, percent inhibition of the control enzyme activity
Chain of human PRMT6 enzyme (Q96LA8 whole entry): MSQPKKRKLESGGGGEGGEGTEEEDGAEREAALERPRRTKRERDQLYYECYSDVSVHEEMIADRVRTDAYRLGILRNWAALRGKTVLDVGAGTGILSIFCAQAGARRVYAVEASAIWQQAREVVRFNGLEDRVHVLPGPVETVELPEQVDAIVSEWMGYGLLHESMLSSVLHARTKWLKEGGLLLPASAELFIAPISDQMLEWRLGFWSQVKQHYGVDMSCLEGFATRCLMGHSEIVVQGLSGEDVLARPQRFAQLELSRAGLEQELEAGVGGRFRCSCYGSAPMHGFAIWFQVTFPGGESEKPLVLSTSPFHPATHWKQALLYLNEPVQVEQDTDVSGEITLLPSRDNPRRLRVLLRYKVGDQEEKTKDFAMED
Procedure: as §1
The test compound, reference compound, or water (control) were incubated for 120 min at 22°C with 10 ng human PRMT6 enzyme, 120 nM [^3H]SAM and 25 nM Histone H3 full length in a buffer containing 45 mM Tris-HCl (pH 8), 45 mM NaCl, 4.5 mM MgCl2 and 3.6 mM DTT.
as §2
The results are expressed as a percent inhibition of the control enzyme activity. The standard reference compound is SAH, which is tested in each experiment at several concentrations to obtain a competition curve from which its IC50 is calculated. (lberg et al., 2007, J. Biol. Chem., 283: 3006).

human PRMT7 enzyme = biological target: T2, human PRMT7 enzyme (Homo sapiens, UniProt Q9NVM4); assay: PRMT7 inhibition assay (radioactive [3H]SAM methyl transfer, filter binding); conditions: 250 nM [3H]SAM, 4 nM Histone H2B (21-41) biotin labelled, 90 min at 22°C; for inhibition at 100 µM: read-out: PRMT7 100µM, percent inhibition of the control enzyme activity; for inhibition at 10 µM: read-out: PRMT7 10µM, percent inhibition of the control enzyme activity
T2 sequence (Q9NVM4 1-692): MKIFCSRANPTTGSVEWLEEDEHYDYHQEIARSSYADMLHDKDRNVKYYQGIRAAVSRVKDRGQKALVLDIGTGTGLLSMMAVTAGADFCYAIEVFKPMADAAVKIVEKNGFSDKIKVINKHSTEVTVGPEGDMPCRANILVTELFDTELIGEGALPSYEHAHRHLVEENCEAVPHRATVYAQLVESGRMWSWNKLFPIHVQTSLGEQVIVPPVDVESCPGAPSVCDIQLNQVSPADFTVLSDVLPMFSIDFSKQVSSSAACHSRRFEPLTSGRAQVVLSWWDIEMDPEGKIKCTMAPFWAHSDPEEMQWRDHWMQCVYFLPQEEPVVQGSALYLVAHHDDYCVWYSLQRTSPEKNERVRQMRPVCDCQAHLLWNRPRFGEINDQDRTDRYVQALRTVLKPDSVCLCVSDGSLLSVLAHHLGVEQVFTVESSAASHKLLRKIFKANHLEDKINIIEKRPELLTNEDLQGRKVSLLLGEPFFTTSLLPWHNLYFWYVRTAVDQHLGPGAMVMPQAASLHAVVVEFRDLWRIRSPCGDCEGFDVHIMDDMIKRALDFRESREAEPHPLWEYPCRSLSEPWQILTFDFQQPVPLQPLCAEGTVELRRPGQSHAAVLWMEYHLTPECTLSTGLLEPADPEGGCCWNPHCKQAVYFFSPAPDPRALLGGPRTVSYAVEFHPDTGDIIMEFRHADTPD
Procedure: as §1
The test compound, reference compound, or water (control) were incubated for 90 min at 22°C with 12.5 ng human PRMT7 enzyme, 250 nM [^3H]SAM and 4 nM Histone H2B (21-41) biotin labelled in a buffer containing 45 mM Tris-HCl (pH 8.7), 0.0045% Tween20, 0.009% HSA and 0.9 mM DTT.
as §2
as §3, with “(Zurita-Lopez” for “(Selvi”, “2012,” for “2010,”, “287(11):7859).” for “285: 7143).”

Molecule | IC50 (human PRMT4 enzyme) [µM] | inhibition at 100 µM (human PRMT4 enzyme; compound at 100µM) [%] | inhibition at 100 µM (human PRMT7 enzyme; compound at 100µM) [%] | inhibition at 100 µM (human PRMT1 enzyme) [%] | inhibition at 10 µM (human PRMT4 enzyme; compound at 10µM) [%] | inhibition at 10 µM (human PRMT6 enzyme) [%] | inhibition at 100 µM (human PRMT6 enzyme; compound at 100µM) [%] | inhibition at 10 µM (human PRMT7 enzyme; compound at 10µM) [%] | further results
1-(methoxymethyl)-5-(N-(5'-deoxyadenosin-5'-yl)aminomethyl)cytosine | 1.9 | – | – | – | – | – | – | – | PRMT1 100µM, percent inhibition of the control enzyme activity (human PRMT1 enzyme): 13%; PRMT4/CARM1 10µM, percent inhibition of the control enzyme activity (human PRMT4 enzyme; compound at 10µM): 81%; PRMT4/CARM1 100µM, percent inhibition of the control enzyme activity (human PRMT4 enzyme; compound at 100µM): 99%; PRMT6 100µM, percent inhibition of the control enzyme activity (human PRMT6 enzyme; compound at 100µM): 20%; PRMT7 10µM, percent inhibition of the control enzyme activity (human PRMT7 enzyme; compound at 10µM): 33%; PRMT7 100µM, percent inhibition of the control enzyme activity (human PRMT7 enzyme; compound at 100µM): 89%
COCn1cc(CNC[C@H]2O[C@@H](n3cnc4c(N)ncnc43)[C@H](O)[C@@H]2O)c(N)nc1=O [Compound A, 1-(methoxymethyl)-5-(N-(5'-deoxyadenosin-5'-yl)aminomethyl)cytosine 5'-deoxy-5'-((1-(methoxymethyl)cytosin-5-yl)methylamino)adenosine] | – | 21 | 12 | – | – | – | – | – | –
COCn1cc(CN(CCC(N)C(=O)O)CC2OC(n3cnc4c(N)ncnc43)C(O)C2O)c(N)nc1=O (centres unmarked) [Compound B] | – | 59 | 81 | 24 | 21 | 3 | 61 | 30 | –
COCn1cc(CN(CCC(N)C(=O)O)CCC2OC(n3cnc4c(N)ncnc43)C(O)C2O)c(N)nc1=O (centres unmarked) [D] | 14 | 88 | 83 | 42 | 54 | 8 | 47 | 46 | –

More lines, main results first:

IC50 (human PRMT4 enzyme) [µM] | inhibition at 100 µM (human PRMT4 enzyme; compound at 100µM) [%] | inhibition at 100 µM (human PRMT7 enzyme; compound at 100µM) [%] | inhibition at 100 µM (human PRMT1 enzyme) [%] | inhibition at 10 µM (human PRMT4 enzyme; compound at 10µM) [%] | inhibition at 10 µM (human PRMT6 enzyme) [%] | inhibition at 100 µM (human PRMT6 enzyme; compound at 100µM) [%] | inhibition at 10 µM (human PRMT7 enzyme; compound at 10µM) [%] | Molecule | further results
– | – | – | – | 35 | – | – | – | Nc1nc(=O)n(CCOc2ccccc2)cc1CNCCC1OC(n2cnc3c(N)ncnc32)C(O)C1O (centres unmarked) [E, 5'-deoxy-5'-(N-((1-(2-(4-phenoxy)ethyl)-cytosin-5-yl)methyl)-aminomethyl) adenosine] | –
– | – | – | – | 43 | – | – | – | Nc1nc(=O)n(CCOc2ccc(Br)cc2)cc1CNCC[C@H]1O[C@@H](n2cnc3c(N)ncnc32)[C@H](O)[C@@H]1O [F, 5'-deoxy-5'-(N-((1-(2-(4-bromophenoxy)ethyl)-cytosin-5-yl)methyl)-aminomethyl) adenosine] | –
